Measured values from patent publication US11000601B2, “Conjugated biological molecules, pharmaceutical compositions and methods” (OBI Pharma, Inc., priority 2016, dated 2021).
“And” between values parts separate entries of the source, which are not always exact repeats. Identical values can stand only once. Marks after values point to notes of the source that are not given here. Square brackets hold non-standard residues; d marks the D form. Peptide text beside a SMILES is read from it. * marks the point of attachment. Dolaproine = CO[C@@H]([C@@H]1CCCN1)[C@@H](C)C(=O)O; Dil = CC[C@H](C)[C@H](NC)[C@@H](CC(=O)O)OC; X1 = C[C@@H](N*)[C@@H](O)c1ccccc1; NMeV = CN[C@H](C(=O)O)C(C)C

Tested on: NCI-H526 (ATCC CRL-5811) variant small cell lung cancer cells
Assay: Xenograft tumor model of human small cell lung cancer NCI-H526 in female nu/nu mice: tumor volume, T/C, TGI
Type: in vivo
Conditions: for Tumor Volume (mm^3), individual animal: animals No. 1-8; for Tumor Volume (mm^3), individual animal / Tumor Volume (mm^3), Mean: once weekly x 4 (10 mg/kg IV; MMAE 0.191 mg/kg IP); for Tumor Volume (mm^3), Mean: group mean; for % T/C: treatment/control x 100%, <=42% considered significant; for % TGI: vs vehicle control
Method: In a xenograft tumor model of human small cell lung cancer, viable NCI-H526 stage E carcinoma; variant small cell lung cancer cells (ATCC CRL-5811), were subcutaneously (SC) implanted (1×10^6 cells with matrigel (1:0.8) in 0.2 mL/mouse) into the right flank of female nu/nu mice. Tumor implanted mice were divided into five treatment groups, each group containing eight animals, and test agent administrations were initiated one day after cell implantation (denoted as Day 1).
The NCI-H526 tumor cell line was purchased from American Type Culture Collection (ATCC CRL-5811, variant small cell lung carcinoma) and cultured in Eurofins Panlabs Taiwan, Ltd. The cells were cultured in RPMI-1640 medium containing 10% fetal bovine serum (FBS) at 37° C. in 5% CO2 incubator and implanted subcutaneously in the right flank of each mouse.
Female nu/nu nude, aged 6-7 weeks, were obtained from BioLasco Taiwan (under Charles River Laboratories Licensee) and used. The animals were housed in individually ventilated cages (IVC, 36 Mini Isolator system). The allocation for 5 animals was 27×20×14 in cm. All animals were maintained in a hygienic environment under controlled temperature (20-24° C.) and humidity (30-70%) with 12-hour light/dark cycle. Free access to standard lab diet [MFG (Oriental Yeast Co., Ltd., Japan)] and autoclaved tap water were granted. All aspects of this work including housing, experimentation, and animal disposal were performed in general accordance with the “Guide for the Care and Use of Laboratory Animals: Eighth Edition” (National Academies Press, Washington, D.C., 2011) in our AAALAC-accredited laboratory animal facility. In addition, the animal care and use protocol was reviewed and approved by the IACUC at Eurofins Panlabs Taiwan, Ltd.
The tumor volumes, body weights, mortality, and signs of overt toxicity were monitored and recorded twice weekly for 45 days. Tumor growth inhibition was calculated as T/C (treatment/control)×100%. A T/C value≤42% compared to that of the vehicle control group was considered significant anti-tumor activity. Two-way ANOVA followed by Bonferroni test was used to ascertain the statistically significant significance of groups compared to respective vehicle control (*p<0.05).

Compound: CC[C@H](C)[C@@H]([C@@H](CC(=O)N1CCC[C@H]1[C@H](OC)[C@@H](C)C(=O)N[C@H](C)[C@@H](O)c1ccccc1)OC)N(C)C(=O)[C@@H](NC(=O)[C@@H](NC)C(C)C)C(C)C [MMAE, monomethyl auristatin E] (H-[NMeV]V[Dil][Dolaproine]-X1)
- maximum percent TGI (0.191 mg/kg IP weekly, Day 18): 55%
- anti-tumor activity (in words) (0.191 mg/kg IP weekly, over the course of the study): moderate anti-tumor activity
- Tumor Volume (mm^3), individual animal (Day 1): 75 mm^3 and 108 mm^3 and 81 mm^3 and 83 mm^3 and 99 mm^3 and 60 mm^3 and 68 mm^3 and 91 mm^3
- Tumor Volume (mm^3), Mean (Day 1): 83 mm^3
- % T/C (Day 1): 108%
- Tumor Volume (mm^3), individual animal (Day 4): 80 mm^3 (2×) and 127 mm^3 and 101 mm^3 and 88 mm^3 and 115 mm^3 and 85 mm^3 and 108 mm^3
- Tumor Volume (mm^3), Mean (Day 4): 98 mm^3
- % T/C (Day 4): 120%
- % TGI (Day 4): −20%
- Tumor Volume (mm^3), individual animal (Day 8): 94 mm^3 (2×) and 74 mm^3 (2×) and 83 mm^3 and 70 mm^3 and 82 mm^3 and 121 mm^3
- Tumor Volume (mm^3), Mean (Day 8): 87 mm^3
- % T/C (Day 8): 97%
- % TGI (Day 8): 3%
- Tumor Volume (mm^3), individual animal (Day 11): 74 mm^3 and 86 mm^3 and 89 mm^3 and 104 mm^3 and 121 mm^3 and 67 mm^3 and 77 mm^3 and 79 mm^3
- Tumor Volume (mm^3), Mean (Day 11): 87 mm^3
- % T/C (Day 11): 68%
- % TGI (Day 11): 32%
- Tumor Volume (mm^3), individual animal (Day 15): 82 mm^3 and 133 mm^3 and 137 mm^3 and 101 mm^3 and 144 mm^3 and 89 mm^3 and 172 mm^3 and 123 mm^3
- Tumor Volume (mm^3), Mean (Day 15): 123 mm^3
- % T/C (Day 15): 71%
- % TGI (Day 15): 29%
- Tumor Volume (mm^3), individual animal (Day 18): 80 mm^3 and 199 mm^3 and 246 mm^3 and 169 mm^3 and 187 mm^3 and 101 mm^3 and 281 mm^3 and 202 mm^3
- Tumor Volume (mm^3), Mean (Day 18): 183 mm^3
- % T/C (Day 18): 45%
- % TGI (Day 18): 55%
- Tumor Volume (mm^3), individual animal (Day 22): 74 mm^3 and 618 mm^3 and 530 mm^3 and 337 mm^3 and 317 mm^3 and 152 mm^3 and 621 mm^3 and 401 mm^3
- Tumor Volume (mm^3), Mean (Day 22): 381 mm^3
- % T/C (Day 22): 52%
- % TGI (Day 22): 48%
- Tumor Volume (mm^3), individual animal (Day 25): 70 mm^3 and 1163 mm^3 and 1095 mm^3 and 483 mm^3 and 525 mm^3 and 249 mm^3 and 1078 mm^3 and 535 mm^3
- Tumor Volume (mm^3), Mean (Day 25): 650* mm^3
- % T/C (Day 25): 58%
- % TGI (Day 25): 42%
- Tumor Volume (mm^3), individual animal (Day 29): 90 mm^3 and 1756 mm^3 and 1410 mm^3 and 853 mm^3 and 522 mm^3 and 431 mm^3 and 1313 mm^3 and 845 mm^3
- Tumor Volume (mm^3), Mean (Day 29): 903* mm^3
- % T/C (Day 29): 48%
- % TGI (Day 29): 52%
- Tumor Volume (mm^3), individual animal (Day 31): 173 mm^3 and 1901 mm^3 and 1682 mm^3 and 1172 mm^3 and 657 mm^3 and 550 mm^3 and 1595 mm^3 and 1044 mm^3
- Tumor Volume (mm^3), Mean (Day 31): 1097* mm^3
- % T/C (Day 31): 48%
- % TGI (Day 31): 52%
- Tumor Volume (mm^3), individual animal (Day 36): 126 mm^3 and 3047 mm^3 and 2480 mm^3 and 2090 mm^3 and 759 mm^3 and 1032 mm^3 and 2538 mm^3 and 1318 mm^3
- Tumor Volume (mm^3), Mean (Day 36): 1674 mm^3
- Tumor Volume (mm^3), individual animal (Day 39): 56 mm^3 and 4380 mm^3 and 2713 mm^3 and 2836 mm^3 and 841 mm^3 and 1304 mm^3 and 3040 mm^3 and 1339 mm^3
- Tumor Volume (mm^3), Mean (Day 39): 2064 mm^3
